The source of these data is patent publication US20110144045A1, “USE OF FUMAGILLIN AND THE DERIVATIVES THEREOF TO INCREASE THE BIOAVAILABILITY OF THE MACROCYCLIC LACTONES” (INSTITUT NATIONAL DE LA RECHERCHE AGRONOMIQUE, priority 2005, published 2011).

In one data set the target is murine Pgp (Mus musculus, UniProt P21447). Put plainly: Intracellular accumulation of rhodamine 123 in Mdr1a-LLCPK1 cells (Pgp transport function). It counts as cell-based. The protocol:
(§1) They are cultured for 48 hours at 37° C. to reach confluence in 1 ml of medium without G418. The medium is eliminated and the cells washed with 0.5 ml PBS 1×. […] The cells are lysed by the addition of 0.3 ml PBS 1×/0.5% sodium dodecyl sulphate (50/50, v/v) in each well. After 10 minutes at ambient temperature, 0.3 ml PBS 1× is added to each well then the total lysate (0.6 ml) is transferred to a 2-ml plastic tube and stored at −20° C. until it is analyzed by spectrofluorometry.
(§2) The results obtained were modelled according to the Hill model (Scientist software, Micromath research, Saint Louis, USA).

The subject of data set [1] is rat hepatocytes. Put plainly: Intracellular quantity of 14C moxidectin in primary-cultured rat hepatocytes +/- fumagillin. It counts as cell-based. How it is done:
The isolation and culturing of rat hepatocytes has been described previously (Dupuy et al., 2001b). The hepatocytes are distributed into culture dishes and kept at 37° C. for 12 hours (oven 5% CO2). The cells are cultured in the presence of 5 μM ^14C moxidectin (control) +/−100 μM fumagillin. After 0, 6, 24, 48 and 72 h the incubations are stopped (n=3 for each treatment), the media collected and the hepatocytes harvested by mechanical disassociation in phosphate buffer saline (PBS 1×). The media and the hepatocytes are stored at −20° C. until analysis by high-performance liquid chromatography (HPLC).
^14C moxidectin is quantified in the medium and the hepatocytes by a HPLC technique coupled with an in-line radioactivity detection (Dupuy et al., 2001b). This technique allows ^14C moxidectin and its main metabolite (C29 monohydroxyethyl moxidectin) in rat hepatocytes to be detected and quantified. The radioactivity is measured by liquid scintillation counting (Kontron Beta V counter). The total initial radioactivity of the initial medium at 5 μM ^14C moxidectin +/−100 μM fumagillin corresponds to the 100% value. Due to the concentration of moxidectin detected in the hepatocytes (ng.ml^−1) and to the initially introduced percentage of radioactivity, the time-concentration areas under the curve are calculated from the first to the last experimental point using the trapezoidal method (Gibaldi and Perrier, 1982).

The test system of data set [2] is rat hepatocytes. The conditions noted are these: rat hepatocytes in primary culture; Dupuy et al., 2001b; 2003; cited from earlier work.
The target in another data set is murine Pgp (Mdr1a) (Mus musculus, UniProt P21447). The data set can be described thus: Intracellular accumulation of rhodamine 123 in Mdr1a-LLCPK1 cells (Pgp transport function). It counts as cell-based. The settings on record: mouse, probe rhodamine 123 (10 μM); Hill model; reached at 50 μM of fumagillin; read-out: maximum effect (Emax), Rho123 accumulation as percentage of the VSP effect. The protocol: as §1, §2

Structures are written as SMILES. Some results are limits rather than exact numbers.

Sequence of murine Pgp (P21447 whole entry): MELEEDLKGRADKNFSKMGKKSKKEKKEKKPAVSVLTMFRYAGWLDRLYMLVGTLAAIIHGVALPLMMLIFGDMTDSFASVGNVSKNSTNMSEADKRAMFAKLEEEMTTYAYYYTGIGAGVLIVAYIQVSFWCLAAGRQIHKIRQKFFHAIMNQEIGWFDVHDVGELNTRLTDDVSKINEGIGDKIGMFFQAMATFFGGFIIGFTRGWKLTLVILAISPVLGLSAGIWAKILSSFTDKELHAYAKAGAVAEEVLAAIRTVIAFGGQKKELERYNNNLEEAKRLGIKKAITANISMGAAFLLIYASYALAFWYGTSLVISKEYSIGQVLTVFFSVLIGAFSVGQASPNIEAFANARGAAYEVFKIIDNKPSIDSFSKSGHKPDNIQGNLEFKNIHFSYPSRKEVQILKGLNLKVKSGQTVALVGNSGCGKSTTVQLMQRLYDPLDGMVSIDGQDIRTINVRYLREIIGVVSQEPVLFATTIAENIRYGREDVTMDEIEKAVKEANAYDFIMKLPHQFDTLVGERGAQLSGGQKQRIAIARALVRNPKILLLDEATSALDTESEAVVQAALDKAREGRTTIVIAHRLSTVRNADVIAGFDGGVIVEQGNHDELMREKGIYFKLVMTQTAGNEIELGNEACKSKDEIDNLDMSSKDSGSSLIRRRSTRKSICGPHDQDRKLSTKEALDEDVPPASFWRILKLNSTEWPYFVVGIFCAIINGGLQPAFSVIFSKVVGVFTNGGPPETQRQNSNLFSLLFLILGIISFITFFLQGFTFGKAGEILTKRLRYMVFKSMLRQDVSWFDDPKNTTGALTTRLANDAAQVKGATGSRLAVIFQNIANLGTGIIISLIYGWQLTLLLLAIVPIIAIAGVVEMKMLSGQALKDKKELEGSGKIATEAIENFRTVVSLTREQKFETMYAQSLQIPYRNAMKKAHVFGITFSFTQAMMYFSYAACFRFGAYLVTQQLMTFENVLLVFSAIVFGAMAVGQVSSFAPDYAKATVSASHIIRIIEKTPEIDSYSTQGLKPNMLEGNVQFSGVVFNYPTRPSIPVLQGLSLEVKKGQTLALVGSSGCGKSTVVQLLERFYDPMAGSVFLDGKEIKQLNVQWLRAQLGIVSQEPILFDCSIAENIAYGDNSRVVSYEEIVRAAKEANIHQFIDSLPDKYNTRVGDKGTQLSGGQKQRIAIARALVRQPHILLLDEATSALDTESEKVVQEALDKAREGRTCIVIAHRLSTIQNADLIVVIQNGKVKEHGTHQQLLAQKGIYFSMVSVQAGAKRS
Sequence of murine Pgp (Mdr1a) (P21447 whole entry): as above

As to `CC[C@H](C)[C@H]1O[C@]2(CC[C@@H]1C)C[C@@H]1C[C@@H](C/C=C(\C)[C@@H](O[C@H]3C[C@H](OC)[C@@H](O[C@H]4C[C@H](OC)[C@@H](O)[C@H](C)O4)[C@H](C)O3)[C@@H](C)/C=C/C=C3\CO[C@@H]4[C@H](O)C(C)=C[C@@H](C(=O)O1)[C@]34O)O2` [IVM, ivermectin], at murine Pgp (5 μM IVM, Mdr1a-LLCPK1 cells, 2 h, 10 μM Rho123), the “effect on Rho 123 accumulation relative to the effect of VSP” value was found to be 95%.

Regarding `C/C=C/C[C@@H](C)C(=O)[C@H]1C(=O)N[C@@H](C(C)C)C(=O)N(C)CC(=O)N(C)[C@@H](CC(C)C)C(=O)N[C@@H](C(C)C)C(=O)N(C)[C@@H](CC(C)C)C(=O)N[C@@H](C)C(=O)N[C@H](C)C(=O)N(C)[C@@H](CC(C)C)C(=O)N(C)[C@@H](CC(C)C)C(=O)N(C)[C@@H](C(C)C)C(=O)N1C` [VSP, Valspodar], on murine Pgp (VSP 10 μM, considered to be the maximum value by definition), the “Rho 123 accumulation, maximum value taken as reference” value was 100%.

As to `CO/N=C1\C[C@]2(C[C@@H]3C[C@@H](C/C=C(\C)C[C@@H](C)/C=C/C=C4\CO[C@@H]5[C@H](O)C(C)=C[C@@H](C(=O)O3)[C@]45O)O2)O[C@H](/C(C)=C/C(C)C)[C@H]1C` [Moxidectin, moxidectin], the “time of maximum quantity of intracellular moxidectin” value with rat hepatocytes [1] (rat) is given as 6 h. Also, the “quantity of 14C moxidectin in cultured rat hepatocytes” value in the data set with rat hepatocytes [1] (rat, 0 h, 5 μM) worked out at 4.5 ± 1.25; in the data set on rat hepatocytes [1] (rat, 6 h, 5 μM) it was 72.95 ± 9.98; in the data set on rat hepatocytes [1] (rat, 24 h, 5 μM) it was 52.60 ± 5.94; with rat hepatocytes [1] (rat, 48 h, 5 μM), 22.19 ± 4.00; with rat hepatocytes [1] (rat, 72 h, 5 μM), 11.98 ± 1.30. The “main metabolite (C29 monohydroxyethyl) as share of the parent substance” value in the data set on rat hepatocytes [1] (rat, 24 h, 5 μM) was no more than 4%.

Regarding `O=c1c(O)c(-c2ccc(O)c(O)c2)oc2cc(O)cc(O)c12` [quercetin], in the data set with rat hepatocytes [2], the “effect on the quantity of 14C moxidectin in the hepatocytes of rats” value is given as “significantly increases”.

In the case of `CO[C@@H]1[C@H](OC(=O)/C=C/C=C/C=C/C=C/C(=O)O)CC[C@]2(CO2)[C@H]1[C@@]1(C)O[C@@H]1CC=C(C)C` [fumagillin], the “increase of the quantity of moxidectin in the hepatocytes (time-concentration area under the curve)” value with rat hepatocytes [1] (100 μM fumagillin with 5 μM 14C moxidectin, over a period of 72 h, versus moxidectin control) is 65%. At murine Pgp (Mdr1a), the Emax (usually the greatest response seen or fitted, relative to the assay's reference) at 2 h, 50 μM was found to be 43.7%. Further, at murine Pgp (Rho123 accumulation in Mdr1a-LLCPK1, Hill model, read-out: EC50, concentration necessary to reach 50% of the maximum effect), the EC50 was determined as 10 µM. Further, the “effect on the quantity of intracellular Rho 123” value at murine Pgp (fumagillin 10 to 100 μM) is “increased”.

For the compound `CC(=O)N1CCN(c2ccc(OCC3COC(Cn4ccnc4)(c4ccc(Cl)cc4Cl)O3)cc2)CC1` (stereo not drawn) [ketoconazole], the “effect on the quantity of 14C moxidectin in the hepatocytes of rats” value in the data set with rat hepatocytes [2] is on record as “significantly increases”.
